Experimental data reported in publication PMC4579270, “Identification and Characterization of an Irreversible Inhibitor of CDK2” (Chemistry & Biology, 2015).
Where two headings read alike, the source gives them in different places.

Assays:
[1] = tested on: phosphorylation of Rb at Thr821 in SKUT-1B cells; assay: Inhibition of Rb phosphorylation in cells (western blot); type: cell-based; conditions: Homo sapiens, Skut1B, 1 hr exposure
Method: The cellular potency of NU6300 was examined by measuring the inhibition of Rb phosphorylation following exposure of SKUT-1B cells to the inhibitor for 1 hr. Pre-incubation with 50 μM NU6300 inhibited phosphorylation of Rb at […], a known CDK2 phosphorylation site, by 43%. […] This difference just reached statistical significance (p = 0.04). […] Representative of three different experiments. […] Protein expression levels of phospho-Rb ([…]) were normalized to the levels of total Rb in respective samples using densitometry. Relative protein expression levels are presented as percentage of inhibition of phosphorylation of Rb ([…]) compared with the control cells for each time point. Error bars represent the mean value and SD from three independent experiments. Statistical analysis was performed using the unpaired Student's t test, one-tailed. Western blot analysis was carried out as described previously ([Thomas et al., 2011]) using rabbit anti-[…] phospho-Rb antibody (Invitrogen) or mouse antihuman Rb antibody (BD Pharmingen) to detect phosphorylated and total retinoblastoma protein, respectively. Sample preparation is described in Supplemental Experimental Procedures. page 14: formate) before cryo-coolling. Data processing was carried out using programs of the CCP4 suite (CCP4, 1994). The structure of NU6300 bound to CDK2/cyclin A was solved by molecular replacement using Phaser (McCoy et al., 2007), using as the search model a high-resolution structure of a recruitment peptide bound to CDK2/cyclin A ((Cheng et al., 2006) PDB code 2CCH). A single clear solution was found with an inhibitor bound to each of the two copies of the binary complex in the asymmetric unit. This solution was then subjected to rigid body refinement in REFMAC (Murshudov et al., 1997), to reveal unambiguous electron density in the CDK2 ATP-binding site, consistent with the expected shape of the inhibitor. A model of NU6300 was created using Coot (Emsley et al., 2010). The inhibitor atoms were kept in all subsequent models during refinement carried out by additional rounds of manual rebuilding in Coot and restrained refinement in REFMAC5, including TLS refinement. Towards the end of refinement, waters were added using the Coot water picking utility and manually verified. Western blotting SKUT-1B cells (ATCC, Manassas, USA) were grown in MEM medium supplemented with non-essential amino acids, L-Glutamine, sodium pyruvate and 10% (v/v) foetal calf serum (Sigma, UK). […] Cells were harvested at different time points after the washout and lysed by adding PhosphoSafe extraction reagent (Merck, UK) containing protease inhibitor cocktail (Roche, UK) at the manufacturer's recommended dilution. The harvested cell suspension was placed in an eppendorf tube on ice, centrifuged at 13,000x g for 5 min, and the supernatant (cell lysate) removed for analysis. Subsequent western blot analysis was carried out as described in (Thomas et al., 2011) using rabbit anti-[…] phospho-Rb antibody (Invitrogen, Paisley, UK Cat No. 44-[…]) or mouse anti-human Rb antibody (BD Pharmingen, Oxford, UK Cat No. 554136) to detect phosphorylated and total retinoblastoma protein, respectively.

[2] = molecular target: Src (Homo sapiens, UniProt P12931); assay: Dundee kinase screen re-test (standard format and 4 hour pre-incubation); type: biochemical
Method: (§1) Prior to determining its cellular activity, we carried out a screen to assess its selectivity against a panel of 131 protein kinases under conditions that would not distinguish between a reversible or irreversible mode of action. […] These 13 kinases and 29 additional kinases, selected for their known sensitivity to other inhibitors within the purine series, were then tested in a modified screening format in which the assay was repeated following a 4-hr pre-incubation (Table S3B). […] However, conformational flexibility around the active site may promote such an interaction with a residue from another part of the structure ([Martin et al., 2012]).
(§2) Table S3, Related to Figure 4. NCL-0006300 protein kinase selectivity. […]
(§3) Dundee protein kinase screen (Bain et al., 2007). Values given are % activity remaining and are the average of duplicate measurements: 0-25% (red), 26-50% (yellow), 51-80% […]
(§4) (black) and above 81% (green). […]
(§5) (B) Selected kinases were re-tested in the Dundee kinase screen against NU6300 at a single concentration of 0.5 µM both in the standard assay format and following a 4 hour pre-incubation in the presence of NU6300. Kinases which have very low activity after the 4 hour incubation so that results might not be wholly reliable are boxed in salmon. Kinases where the activity after a 4 hour pre-incubation is < 50% that in the standard assay format are highlighted in red.

[3] = molecular target: ROCK 2 (Homo sapiens, UniProt O75116); assay: as above; type: biochemical; conditions: ROCK 2, 0.5µM
Method: as §1, §2, §3, §4, §5

[4] = molecular target: SIK2 (Homo sapiens, UniProt Q9H0K1); assay: as above; type: biochemical; conditions: SIK2, 0.5µM
Method: as §1, §2, §3, §4, §5

[5] = molecular target: T1, TAK1 (Homo sapiens, UniProt O43318); assay: as above; type: biochemical; conditions: TAK1, 0.5µM
T1 sequence (O43318 1-303 limits assumed): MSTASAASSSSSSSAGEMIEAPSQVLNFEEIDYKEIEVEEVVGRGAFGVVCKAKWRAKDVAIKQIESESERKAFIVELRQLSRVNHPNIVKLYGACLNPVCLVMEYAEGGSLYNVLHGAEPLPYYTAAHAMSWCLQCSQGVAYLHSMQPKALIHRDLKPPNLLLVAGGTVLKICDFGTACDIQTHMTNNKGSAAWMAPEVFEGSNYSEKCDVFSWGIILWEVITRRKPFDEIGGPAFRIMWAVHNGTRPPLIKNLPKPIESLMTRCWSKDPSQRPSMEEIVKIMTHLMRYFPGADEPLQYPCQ
Method: as §1, §2, §3, §4, §5

[6] = molecular target: RSK1 (Homo sapiens, UniProt Q15418); assay: as above; type: biochemical; conditions: RSK1, 0.5µM
Method: as §1, §2, §3, §4, §5

[7] = 4hr RT preincubation, read-out: %Remaining activity at 0.5µM NU6300 - 4hr RT preincubation
[8] = usual format, read-out: %Remaining activity at 0.5µM NU6300 - Usual assay format

Sequence of RSK1 (Q15418 whole entry): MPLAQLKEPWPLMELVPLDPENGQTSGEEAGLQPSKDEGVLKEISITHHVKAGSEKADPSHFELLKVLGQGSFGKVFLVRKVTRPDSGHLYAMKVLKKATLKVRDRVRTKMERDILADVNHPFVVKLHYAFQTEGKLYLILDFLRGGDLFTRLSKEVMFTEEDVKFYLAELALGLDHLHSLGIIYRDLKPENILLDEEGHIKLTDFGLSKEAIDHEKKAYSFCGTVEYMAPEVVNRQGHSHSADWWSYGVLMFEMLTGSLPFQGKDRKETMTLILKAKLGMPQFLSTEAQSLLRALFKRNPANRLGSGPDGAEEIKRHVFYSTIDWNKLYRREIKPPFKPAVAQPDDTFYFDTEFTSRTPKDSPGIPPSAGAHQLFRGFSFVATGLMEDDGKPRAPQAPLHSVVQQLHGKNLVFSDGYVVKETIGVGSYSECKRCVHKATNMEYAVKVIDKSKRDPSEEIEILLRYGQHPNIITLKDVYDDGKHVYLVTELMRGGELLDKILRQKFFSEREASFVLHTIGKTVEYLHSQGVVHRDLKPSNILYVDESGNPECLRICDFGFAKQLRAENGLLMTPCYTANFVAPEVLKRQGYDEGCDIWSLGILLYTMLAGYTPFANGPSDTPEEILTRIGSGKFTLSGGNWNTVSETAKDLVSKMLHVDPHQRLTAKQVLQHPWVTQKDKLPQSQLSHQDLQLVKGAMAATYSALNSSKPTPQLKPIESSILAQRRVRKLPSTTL
Sequence of ROCK 2 (O75116 whole entry): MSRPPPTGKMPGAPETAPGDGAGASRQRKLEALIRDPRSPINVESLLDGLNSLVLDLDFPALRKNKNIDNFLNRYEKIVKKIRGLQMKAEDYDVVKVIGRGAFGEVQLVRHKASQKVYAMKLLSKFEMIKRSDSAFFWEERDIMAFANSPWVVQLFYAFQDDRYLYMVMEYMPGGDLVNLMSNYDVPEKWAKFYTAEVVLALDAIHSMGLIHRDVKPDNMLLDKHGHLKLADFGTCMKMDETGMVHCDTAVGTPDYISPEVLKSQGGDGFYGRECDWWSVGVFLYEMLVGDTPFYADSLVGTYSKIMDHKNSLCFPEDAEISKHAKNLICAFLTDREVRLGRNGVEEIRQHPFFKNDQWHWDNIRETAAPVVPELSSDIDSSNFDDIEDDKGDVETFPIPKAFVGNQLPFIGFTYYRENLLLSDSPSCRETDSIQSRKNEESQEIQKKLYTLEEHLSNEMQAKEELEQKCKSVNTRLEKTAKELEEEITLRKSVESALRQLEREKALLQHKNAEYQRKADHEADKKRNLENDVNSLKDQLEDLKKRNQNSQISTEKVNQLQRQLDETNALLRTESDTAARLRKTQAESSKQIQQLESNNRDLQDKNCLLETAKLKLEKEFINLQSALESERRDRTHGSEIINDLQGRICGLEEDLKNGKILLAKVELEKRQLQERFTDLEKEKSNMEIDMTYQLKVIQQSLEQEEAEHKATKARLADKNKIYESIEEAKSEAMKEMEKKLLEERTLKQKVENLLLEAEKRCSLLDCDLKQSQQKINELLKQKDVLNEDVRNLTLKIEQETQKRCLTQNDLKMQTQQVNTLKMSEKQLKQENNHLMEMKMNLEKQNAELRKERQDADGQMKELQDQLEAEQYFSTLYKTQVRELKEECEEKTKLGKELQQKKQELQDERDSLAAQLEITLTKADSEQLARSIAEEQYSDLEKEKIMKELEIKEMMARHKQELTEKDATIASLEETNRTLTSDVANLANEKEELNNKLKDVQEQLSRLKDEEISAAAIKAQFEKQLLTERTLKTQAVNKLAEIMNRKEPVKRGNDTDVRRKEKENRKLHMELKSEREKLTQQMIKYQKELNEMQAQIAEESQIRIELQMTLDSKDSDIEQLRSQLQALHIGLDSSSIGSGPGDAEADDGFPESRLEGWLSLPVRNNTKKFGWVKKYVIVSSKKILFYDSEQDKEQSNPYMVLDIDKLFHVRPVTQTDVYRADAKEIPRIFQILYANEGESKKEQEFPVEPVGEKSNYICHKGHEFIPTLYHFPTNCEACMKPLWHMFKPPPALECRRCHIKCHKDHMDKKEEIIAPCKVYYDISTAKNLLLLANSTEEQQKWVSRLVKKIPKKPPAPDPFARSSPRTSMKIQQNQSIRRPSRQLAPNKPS
Sequence of Src (P12931 whole entry): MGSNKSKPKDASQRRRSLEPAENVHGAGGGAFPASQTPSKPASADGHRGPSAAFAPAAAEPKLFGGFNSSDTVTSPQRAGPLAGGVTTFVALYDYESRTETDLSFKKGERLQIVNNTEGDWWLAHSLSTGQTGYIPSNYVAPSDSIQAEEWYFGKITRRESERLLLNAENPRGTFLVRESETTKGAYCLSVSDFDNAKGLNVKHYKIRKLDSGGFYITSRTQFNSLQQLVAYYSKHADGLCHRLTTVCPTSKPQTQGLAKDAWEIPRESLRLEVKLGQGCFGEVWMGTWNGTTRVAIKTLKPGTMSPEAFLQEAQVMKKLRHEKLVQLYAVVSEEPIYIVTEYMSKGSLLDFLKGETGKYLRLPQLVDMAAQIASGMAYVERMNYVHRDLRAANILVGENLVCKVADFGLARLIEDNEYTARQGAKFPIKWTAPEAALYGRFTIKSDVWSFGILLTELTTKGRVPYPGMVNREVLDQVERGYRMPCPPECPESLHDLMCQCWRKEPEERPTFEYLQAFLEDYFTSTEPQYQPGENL
Sequence of SIK2 (Q9H0K1 whole entry): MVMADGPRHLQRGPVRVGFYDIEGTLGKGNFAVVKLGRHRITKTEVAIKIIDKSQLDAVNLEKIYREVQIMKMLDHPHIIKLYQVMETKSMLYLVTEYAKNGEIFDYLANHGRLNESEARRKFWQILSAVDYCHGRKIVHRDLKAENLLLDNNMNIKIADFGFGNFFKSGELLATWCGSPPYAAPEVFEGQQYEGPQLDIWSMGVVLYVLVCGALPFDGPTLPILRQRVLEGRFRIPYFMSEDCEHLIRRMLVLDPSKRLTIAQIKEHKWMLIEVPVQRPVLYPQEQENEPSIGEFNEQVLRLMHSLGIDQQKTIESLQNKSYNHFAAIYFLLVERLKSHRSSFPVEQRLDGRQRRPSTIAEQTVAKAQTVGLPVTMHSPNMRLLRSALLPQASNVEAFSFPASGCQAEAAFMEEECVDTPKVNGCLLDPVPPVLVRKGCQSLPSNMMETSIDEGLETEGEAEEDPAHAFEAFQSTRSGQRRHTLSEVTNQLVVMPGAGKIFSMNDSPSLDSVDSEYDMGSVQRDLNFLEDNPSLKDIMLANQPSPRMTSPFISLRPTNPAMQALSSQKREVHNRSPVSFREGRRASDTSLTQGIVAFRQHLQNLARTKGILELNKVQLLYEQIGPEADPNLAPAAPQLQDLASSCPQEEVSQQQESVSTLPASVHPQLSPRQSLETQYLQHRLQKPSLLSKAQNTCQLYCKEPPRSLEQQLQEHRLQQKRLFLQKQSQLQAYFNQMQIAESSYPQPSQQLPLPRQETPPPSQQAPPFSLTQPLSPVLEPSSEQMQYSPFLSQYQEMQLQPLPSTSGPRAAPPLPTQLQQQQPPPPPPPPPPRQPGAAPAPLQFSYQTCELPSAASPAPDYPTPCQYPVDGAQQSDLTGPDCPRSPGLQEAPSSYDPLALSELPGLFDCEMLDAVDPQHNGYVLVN

## C=CS(=O)(=O)c1ccc(Nc2nc(OCC3CCCCC3)c3nc[nH]c3n2)cc1 [NU6300, 6-(cyclohexylmethoxy)-N-(4-(vinylsulfonyl)phenyl)-9H-purin-2-amine]
[1]; before washout, read-out: inhibition of phosphorylation of Rb at Thr821
  inhibition at 50 µM: 43%
[1]; then 1-hr washout in drug-free media, read-out: inhibition of phosphorylation of Rb at Thr821 after washout
  inhibition at 50 µM: 33%
[2]; [7]
  remaining activity at 0.5 µM: 54%
[2]; [8]
  remaining activity at 0.5 µM: 48%
[3]; [7]
  remaining activity at 0.5 µM: 47%
[3]; [8]
  remaining activity at 0.5 µM: 46%
[4]; [7]
  remaining activity at 0.5 µM: 69%
[4]; [8]
  remaining activity at 0.5 µM: 39%
[5]; [7]
  remaining activity at 0.5 µM: 24%
[5]; [8]
  remaining activity at 0.5 µM: 19%
[6]; [7]
  remaining activity at 0.5 µM: 131%
[6]; [8]
  remaining activity at 0.5 µM: 83%
